Test results: US8796259B2, “N3-heteroaryl substituted triazoles and N5-heteroaryl substituted triazoles useful as axl inhibitors” (Rigel Pharmaceuticals, Inc., priority 2006, dated 2014)

Target: T1, Axl (Homo sapiens, UniProt P30530)
T1 construct: endogenous in cells; host or cells: HeLa cells
T1 sequence (P30530 26-894): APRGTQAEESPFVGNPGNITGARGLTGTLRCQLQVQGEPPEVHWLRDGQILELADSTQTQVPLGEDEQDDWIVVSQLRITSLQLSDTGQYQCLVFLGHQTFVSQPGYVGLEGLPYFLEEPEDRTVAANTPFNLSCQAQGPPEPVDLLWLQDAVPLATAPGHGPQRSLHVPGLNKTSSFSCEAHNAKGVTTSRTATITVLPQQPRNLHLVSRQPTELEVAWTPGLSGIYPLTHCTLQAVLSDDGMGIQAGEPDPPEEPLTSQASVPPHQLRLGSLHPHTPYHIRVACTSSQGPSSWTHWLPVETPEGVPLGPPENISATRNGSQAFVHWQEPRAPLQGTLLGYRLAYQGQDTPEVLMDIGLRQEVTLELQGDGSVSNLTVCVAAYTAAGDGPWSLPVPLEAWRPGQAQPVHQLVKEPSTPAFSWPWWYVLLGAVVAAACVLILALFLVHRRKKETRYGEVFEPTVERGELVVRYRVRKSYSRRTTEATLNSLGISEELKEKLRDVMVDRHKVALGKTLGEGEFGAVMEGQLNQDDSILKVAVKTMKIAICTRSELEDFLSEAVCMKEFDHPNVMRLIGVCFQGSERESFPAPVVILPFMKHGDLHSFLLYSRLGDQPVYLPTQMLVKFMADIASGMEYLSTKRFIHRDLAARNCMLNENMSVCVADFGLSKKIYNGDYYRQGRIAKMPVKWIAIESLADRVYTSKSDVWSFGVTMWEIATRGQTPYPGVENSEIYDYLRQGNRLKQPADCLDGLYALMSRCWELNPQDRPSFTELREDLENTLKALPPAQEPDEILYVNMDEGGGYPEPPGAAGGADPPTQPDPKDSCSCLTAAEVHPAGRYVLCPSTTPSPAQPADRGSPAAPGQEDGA
Experiment: Phospho-Akt in-cell Western assay (inhibition of Axl activity, Axl-antibody cross-linking stimulation)
Type: cell-based
Details: Hela cells, phospho-Akt readout; compounds of formula (Ia), Table 1
How it was run: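 HeLa cells on poly-L-lysine were starved 24 h in 0.5% FCS/DMEM with 500 ng/mL Axl/Fc, pre-treated with compound 1 h at 37 °C, then stimulated 5 min by cross-linked mouse anti-Axl/biotin anti-mouse antibody clusters. After formaldehyde fixation, phospho-Akt was detected by rabbit anti-phospho-Akt and HRP secondary with chemiluminescence read-out.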

| SMILES | IC50 |
| --- | --- |
| Cc1csc2c(-n3nc(Nc4cnc5c(c4)CC(NC4CC6CCC4C6)CC5)nc3N)nc(Cl)nc12 (centres unmarked) [compound 103, 1-(2-chloro-7-methylthieno [3,2-d]pyrimidin-4-yl)-N^3-(6-bicyclo[2.2.1]heptan-2-yl-amino-5,6,7,8-tetrahydro-quinolin-3-yl)-1H-1,2,4-triazole-3,5-diamine] | < 1000 nM |
| Cc1cc(Nc2nc(N)n(-c3ncnc4c(C)csc34)n2)cnc1N1CCN([C@H]2C[C@@H]3CC[C@H]2C3)[C@@H](C)C1 [compound 106, 1-(7-methylthieno [3,2-d]pyrimidin-4-yl)-N^3-(2-(3-(S)-methyl-4-(1S,2S,4R)-bicyclo[2.2.1]heptan-2-ylpiperazin-1-yl)-3-methylpyridin-5-yl)-1H-1,2,4-triazole-3,5-diamine] | < 1000 nM |
| Cc1cc(Nc2nc(N)n(-c3nc(Cl)nc4c(C)csc34)n2)cnc1N1CCN([C@H]2CC3CCC2C3)[C@@H](C)C1 (stereo partly drawn) [compound 107, 1-(2-chloro-7-methylthieno [3,2-d]pyrimidin-4-yl)-N^3-(2-(3-(S)-methyl-4-(2S)-bicyclo[2.2.1]heptan-2-ylpiperazin-1-yl)-3-methylpyridin-5-yl)-1H-1,2,4-triazole-3,5-diamine] | < 1000 nM |
| Cc1cc(Nc2nc(N)n(-c3ncnc4ccsc34)n2)cnc1N1CCN([C@H]2CC3CCC2C3)[C@@H](C)C1 (stereo partly drawn) [compound 108, 1-(thieno [3,2-d]pyrimidin-4-yl)-N^3-(2-(3-(S)-methyl-4-(2S)-bicyclo[2.2.1]heptan-2-ylpiperazin-1-yl)-3-methylpyridin-5-yl)-1H-1,2,4-triazole-3,5-diamine] | < 1000 nM |
| Cc1csc2c(-n3nc(Nc4cnc(N5CCN([C@H]6CC7CCC6C7)CC5)c(Cl)c4)nc3N)nc(Cl)nc12 (stereo partly drawn) [compound 109, 1-(2-chloro-7-methylthieno [3,2-d]pyrimidin-4-yl)-N^3-(2-(4-(2S)-bicyclo[2.2.1]heptan-2-ylpiperazin-1-yl)-3-chloropyridin-5-yl)-1H-1,2,4-triazole-3,5-diamine] | 1000 to 10000 nM |
| Cc1csc2c(-n3nc(Nc4cnc(N5CCN([C@H]6CC7CCC6C7)CC5)c(Cl)c4)nc3N)ncnc12 (stereo partly drawn) [compound 110, 1-(7-methylthieno [3,2-d]pyrimidin-4-yl)-N^3-(2-(4-(2S)-bicyclo[2.2.1]heptan-2-ylpiperazin-1-yl)-3-chloropyridin-5-yl)-1H-1,2,4-triazole-3,5-diamine] | 10000 to 20000 nM |
| Cc1cc(Nc2nc(N)n(-c3ncnc4c(C)csc34)n2)cnc1N1CCN([C@H]2CC3CCC2C3)CC1 (stereo partly drawn) [compound 111, 1-(7-methylthieno [3,2-d]pyrimidin-4-yl)-N^3-(2-(4-(2S)-bicyclo[2.2.1]heptan-2-ylpiperazin-1-yl)-3-methylpyridin-5-yl)-1H-1,2,4-triazole-3,5-diamine] | < 1000 nM |

Now from value to compound:

| IC50 | SMILES |
| --- | --- |
| < 1000 nM | Cc1csc2c(-n3nc(Nc4cnc(N5CCC(N6CCCC6)CC5)nc4)nc3N)nc(Cl)nc12 [compound 91, 1-(2-chloro-7-methylthieno [3,2-d]pyrimidin-4-yl)-N^3-(2-(4-pyrrolidin-1ylpiperidin-1-yl)pyrimidin-5-yl)-1H-1,2,4-triazole-3,5-diamine] |
| < 1000 nM | Cc1cc(Nc2nc(N)n(-c3ncnc4c(C)csc34)n2)cnc1N1CCN(CC2CC2)CC1 [compound 94, 1-(7-methylthieno [3,2-d]pyrimidine-4-yl)-N^3-(6-(4-(cyclopropyl-methyl)piperazin-1-yl)-5-methyl-pyridine-3-yl)-1H-1,2,4-triazole-3,5-diamine] |
| < 1000 nM | Cc1cc(Nc2nc(N)n(-c3nc(Cl)nc4c(C)csc34)n2)cnc1N1CCN(CC2CC2)CC1 [compound 95, 1-(2-chloro-7-methylthieno [3,2-d]pyrimidin-4-yl)-N^3-(6-(4-(cyclopropyl-methyl)piperazin-1-yl)-5-methyl-pyridin-3-yl)-1H-1,2,4-triazole-3,5-diamine] |
| < 1000 nM | Cc1csc2c(-n3nc(Nc4cnc5c(c4)CN(C(=O)C4CCN(C)CC4)CC5)nc3N)ncnc12 [compound 96, 1-(7-methylthieno [3,2-d]pyrimidin-4-yl)-N^3-(6-(1-methyl-piperidin-4-yl)carbonyl-5,6,7,8-tetrahydro-1,6-naphthyridin-3-yl)-1H-1,2,4-triazole-3,5-diamine] |
| < 1000 nM | Cc1csc2c(-n3nc(Nc4cnc5c(c4)CN(C4CCCC4)CC5)nc3N)ncnc12 [compound 97, 1-(7-methylthieno [3,2-d]pyrimidin-4-yl)-N^3-(6-cyclopentyl-5,6,7,8-tetrahydro-1,6-naphthyridin-3-yl)-1H-1,2,4-triazole-3,5-diamine] |
| < 1000 nM | Cc1csc2c(-n3nc(Nc4cnc5c(c4)CC(NC(=O)C4CCN(C)CC4)CC5)nc3N)ncnc12 (centres unmarked) [compound 98] |
| < 1000 nM | Cc1csc2c(-n3nc(Nc4cnc5c(c4)CC(NC4CCCC4)CC5)nc3N)ncnc12 (centres unmarked) [compound 99, 1-(7-methylthieno [3,2-d]pyrimidin-4-yl)-N^3-(6-cyclopentyl-amino-5,6,7,8-tetrahydro-quinolin-3-yl)-1H-1,2,4-triazole-3,5-diamine] |
| < 1000 nM | Cc1csc2c(-n3nc(Nc4cnc5c(c4)CC(NC4CCCCC4)CC5)nc3N)nc(Cl)nc12 (centres unmarked) [compound 100, 1-(2-chloro-7-methylthieno [3,2-d]pyrimidin-4-yl)-N^3-(6-cyclohexyl-amino-5,6,7,8-tetrahydro-quinolin-3-yl)-1H-1,2,4-triazole-3,5-diamine] |
| < 1000 nM | Cc1csc2c(-n3nc(Nc4cnc5c(c4)CN(CC4CC4)CC5)nc3N)nc(Cl)nc12 [compound 101, 1-(2-chloro-7-methylthieno [3,2-d]pyrimidin-4-yl)-N^3-(6-cyclopropyl-methyl-5,6,7,8-tetrahydro-1,6-naphthyridin-3-yl)-1H-1,2,4-triazole-3,5-diamine] |
| < 1000 nM | Cc1csc2c(-n3nc(Nc4cnc5c(c4)CN(C4CC6CCC4C6)CC5)nc3N)nc(Cl)nc12 (centres unmarked) [compound 102, 1-(2-chloro-7-methylthieno [3,2-d]pyrimidin-4-yl)-N^3-(6-bicyclo[2.2.1]heptan-2-yl-5,6,7,8-tetrahydro-1,6-naphthyridin-3-yl)-1H-1,2,4-triazole-3,5-diamine] |
| < 1000 nM | Cc1csc2c(-n3nc(Nc4cnc5c(c4)CC(N(CC4CC4)CC4CC4)CC5)nc3N)nc(Cl)nc12 (centres unmarked) [compound 104, 1-(2-chloro-7-methylthieno [3,2-d]pyrimidin-4-yl)-N^3-(6-bis-(cyclo-propylmethyl)amino-5,6,7,8-tetrahydro-quinolin-3-yl)-1H-1,2,4-triazole-3,5-diamine] |
| < 1000 nM | Cc1csc2c(-n3nc(Nc4cnc5c(c4)CCC(N4CCCC4)CC5)nc3N)ncnc12 (centres unmarked) [compound 105, 1-(7-methylthieno [3,2-d]pyrimidin-4-yl)-N^3-(7-(pyrrolidin-1-yl)-6,7,8,9-tetrahydro-5H-cyclohepta [b]pyridine-3-yl)-1H-1,2,4-triazole-3,5-diamine] |

Same assay, conditions: Hela cells, phospho-Akt readout; compounds of formula (Ib), Table 2

| IC50 | SMILES |
| --- | --- |
| 1000 to 10000 nM | Cc1cc(Nc2nc(N)nn2-c2nc(Cl)nc3c(C)csc23)cnc1N1CCC(N2CCCC2)CC1 [compound 92, 1-(2-chloro-7-methylthieno[3,2-d]pyrimidin-4-yl)-N^5-(6-(4-(pyrrolidin-1-yl)piperidin-1-yl)-5-methylpyridin-3-yl)-1H-1,2,4-triazole-3,5-diamine] |
